Data: ChEMBL document CHEMBL1201862, “PubChem BioAssay data set” (2004)
Active and inactive are the calls of the source.

Tests used:
[1] = biological target: FAD-linked sulfhydryl oxidase ALR (Homo sapiens, UniProt P55789); assay: inhibitors of human ALR sulfhydryl oxidase, dose response, biochemical, H2O2 detection, luminescence, cherry-pick (AID 493248)
[2] = intracellular Trypanosoma cruzi inhibitors in host cells – cell-based, plate reader, cherry-pick samples, set 3, dose response (AID 651818); type: functional;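 also: compounds incubated with infected cells for about four days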
[3] = biological target: T1, RNA-binding protein pos-1 (Caenorhabditis elegans, UniProt G5EF15); assay: inhibitors of POS-1/mex-3 RNA binding, dose response, biochemical, fluorescence polarization (AID 1964);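 also: purified POS-1 fused to maltose binding protein made in E. coli; potency of compounds blocking POS-1 binding to fluorescent RNA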
T1 sequence (G5EF15 whole entry): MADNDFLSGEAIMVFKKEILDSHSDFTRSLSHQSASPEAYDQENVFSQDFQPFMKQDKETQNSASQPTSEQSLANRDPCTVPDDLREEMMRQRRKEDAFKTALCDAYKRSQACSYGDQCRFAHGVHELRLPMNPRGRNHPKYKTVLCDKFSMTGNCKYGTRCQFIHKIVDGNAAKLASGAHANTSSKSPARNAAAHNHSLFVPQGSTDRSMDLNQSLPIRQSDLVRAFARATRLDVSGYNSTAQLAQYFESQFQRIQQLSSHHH

[4] = biological target: T2, Zinc finger protein mex-5 (Caenorhabditis elegans, UniProt Q9XUB2); assay: MEX-5/TCR-2 RNA interaction inhibitors, dose response, biochemical, C. elegans, fluorescence polarization (AID 1960)
T2 sequence (Q9XUB2 whole entry): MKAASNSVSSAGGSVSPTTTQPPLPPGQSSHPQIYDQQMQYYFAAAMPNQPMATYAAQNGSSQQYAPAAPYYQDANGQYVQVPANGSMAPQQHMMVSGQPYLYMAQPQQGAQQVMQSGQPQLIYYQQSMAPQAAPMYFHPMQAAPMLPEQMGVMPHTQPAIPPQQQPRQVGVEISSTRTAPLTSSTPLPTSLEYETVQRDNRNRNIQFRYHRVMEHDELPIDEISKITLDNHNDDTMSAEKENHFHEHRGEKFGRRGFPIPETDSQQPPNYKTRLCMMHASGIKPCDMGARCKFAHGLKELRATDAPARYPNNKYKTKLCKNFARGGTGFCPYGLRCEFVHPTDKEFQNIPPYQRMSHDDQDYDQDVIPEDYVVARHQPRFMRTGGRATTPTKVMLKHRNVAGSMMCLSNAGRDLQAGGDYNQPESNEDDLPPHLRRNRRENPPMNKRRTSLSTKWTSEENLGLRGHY

[5] = biological target: T3, Polyadenylate-binding protein 1 (Homo sapiens, UniProt P11940); assay: PABP1 MLLE–PAM2 interaction inhibitors, dose response, miRNA deadenylation inhibitor project, biochemical, fluorescence polarization, Cy5-PAM2 peptide, secondary (AID 602260); type: functional; details: read-out: IC50_Mean
T3 sequence (P11940 whole entry): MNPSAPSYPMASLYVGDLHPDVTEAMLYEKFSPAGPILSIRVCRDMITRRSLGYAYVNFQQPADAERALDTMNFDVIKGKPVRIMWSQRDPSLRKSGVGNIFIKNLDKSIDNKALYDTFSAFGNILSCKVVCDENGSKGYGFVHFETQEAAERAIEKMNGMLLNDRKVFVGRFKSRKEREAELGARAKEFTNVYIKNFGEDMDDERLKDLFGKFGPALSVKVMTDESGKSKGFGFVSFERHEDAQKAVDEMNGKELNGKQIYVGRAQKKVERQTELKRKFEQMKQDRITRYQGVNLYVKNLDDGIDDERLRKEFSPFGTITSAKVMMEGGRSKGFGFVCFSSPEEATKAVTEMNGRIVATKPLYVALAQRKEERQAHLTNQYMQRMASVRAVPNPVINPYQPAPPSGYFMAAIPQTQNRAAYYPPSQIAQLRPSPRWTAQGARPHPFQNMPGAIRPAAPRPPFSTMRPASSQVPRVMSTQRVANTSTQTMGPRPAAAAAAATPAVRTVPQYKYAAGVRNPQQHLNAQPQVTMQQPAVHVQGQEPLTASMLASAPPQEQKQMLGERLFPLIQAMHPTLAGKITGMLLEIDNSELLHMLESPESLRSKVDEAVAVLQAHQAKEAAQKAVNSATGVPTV

[6] = biological target: T3, Polyadenylate-binding protein 1; assay: PABP1 MLLE–PAM2 binding inhibitor potency, dose response, biochemical, fluorescence polarization, FITC-PAM2 peptide (AID 602259); type: functional; details: read-out: IC50_Mean
[7] = control 3'UTR Renilla luciferase suppression, dose response, counter-screen for Shn3 inhibitor project, cell-based, Clone20-Shn3RL, cherry-picked (AID 624133); type: functional
[8] = biological target: Cytochrome P450 2C9 (Homo sapiens, UniProt P11712)
Sequence of Cytochrome P450 2C9 (P11712 whole entry): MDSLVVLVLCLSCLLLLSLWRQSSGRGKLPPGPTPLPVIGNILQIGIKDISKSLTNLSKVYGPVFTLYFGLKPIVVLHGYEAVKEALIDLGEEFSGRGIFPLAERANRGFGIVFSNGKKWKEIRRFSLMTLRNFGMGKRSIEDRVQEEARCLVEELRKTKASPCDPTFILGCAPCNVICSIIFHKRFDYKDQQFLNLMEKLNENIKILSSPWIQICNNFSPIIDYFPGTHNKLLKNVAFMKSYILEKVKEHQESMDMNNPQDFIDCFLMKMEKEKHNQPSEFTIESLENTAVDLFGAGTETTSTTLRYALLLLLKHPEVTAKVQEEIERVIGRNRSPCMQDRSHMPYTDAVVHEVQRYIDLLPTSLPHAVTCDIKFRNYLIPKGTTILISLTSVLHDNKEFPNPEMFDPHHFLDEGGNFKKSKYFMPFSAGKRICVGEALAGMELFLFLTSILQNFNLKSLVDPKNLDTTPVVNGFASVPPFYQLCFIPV

[9] = biological target: Cytochrome P450 3A4 (Homo sapiens, UniProt P08684);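 also: CYP3A4 tested as one member of a cytochrome P450 panel screen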
Sequence of Cytochrome P450 3A4 (P08684 whole entry): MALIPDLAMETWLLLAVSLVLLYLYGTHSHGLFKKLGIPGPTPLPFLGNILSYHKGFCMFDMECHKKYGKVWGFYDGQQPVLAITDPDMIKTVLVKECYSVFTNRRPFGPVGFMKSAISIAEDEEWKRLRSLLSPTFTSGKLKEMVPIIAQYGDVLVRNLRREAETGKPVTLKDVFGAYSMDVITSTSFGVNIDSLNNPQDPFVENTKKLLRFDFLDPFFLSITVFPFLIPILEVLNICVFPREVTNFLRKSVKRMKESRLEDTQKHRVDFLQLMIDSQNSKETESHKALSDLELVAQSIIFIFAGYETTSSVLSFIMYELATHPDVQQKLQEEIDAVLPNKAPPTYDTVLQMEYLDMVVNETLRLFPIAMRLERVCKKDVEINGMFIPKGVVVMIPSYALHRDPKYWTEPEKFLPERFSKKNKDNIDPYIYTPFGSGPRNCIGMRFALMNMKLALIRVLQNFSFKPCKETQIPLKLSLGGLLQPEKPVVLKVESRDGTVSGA

[10] = biological target: T4, Short transient receptor potential channel 4 (Mus musculus, UniProt Q9QUQ5); assay: mouse TRPC4 channel inhibitors, dose response, cell-based, HEK293 TRPC4/mu-opioid, Fluo-4 calcium (AID 434942); type: functional;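 also: potency of inhibitors blocking the TRPC4 calcium response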
T4 sequence (Q9QUQ5 whole entry): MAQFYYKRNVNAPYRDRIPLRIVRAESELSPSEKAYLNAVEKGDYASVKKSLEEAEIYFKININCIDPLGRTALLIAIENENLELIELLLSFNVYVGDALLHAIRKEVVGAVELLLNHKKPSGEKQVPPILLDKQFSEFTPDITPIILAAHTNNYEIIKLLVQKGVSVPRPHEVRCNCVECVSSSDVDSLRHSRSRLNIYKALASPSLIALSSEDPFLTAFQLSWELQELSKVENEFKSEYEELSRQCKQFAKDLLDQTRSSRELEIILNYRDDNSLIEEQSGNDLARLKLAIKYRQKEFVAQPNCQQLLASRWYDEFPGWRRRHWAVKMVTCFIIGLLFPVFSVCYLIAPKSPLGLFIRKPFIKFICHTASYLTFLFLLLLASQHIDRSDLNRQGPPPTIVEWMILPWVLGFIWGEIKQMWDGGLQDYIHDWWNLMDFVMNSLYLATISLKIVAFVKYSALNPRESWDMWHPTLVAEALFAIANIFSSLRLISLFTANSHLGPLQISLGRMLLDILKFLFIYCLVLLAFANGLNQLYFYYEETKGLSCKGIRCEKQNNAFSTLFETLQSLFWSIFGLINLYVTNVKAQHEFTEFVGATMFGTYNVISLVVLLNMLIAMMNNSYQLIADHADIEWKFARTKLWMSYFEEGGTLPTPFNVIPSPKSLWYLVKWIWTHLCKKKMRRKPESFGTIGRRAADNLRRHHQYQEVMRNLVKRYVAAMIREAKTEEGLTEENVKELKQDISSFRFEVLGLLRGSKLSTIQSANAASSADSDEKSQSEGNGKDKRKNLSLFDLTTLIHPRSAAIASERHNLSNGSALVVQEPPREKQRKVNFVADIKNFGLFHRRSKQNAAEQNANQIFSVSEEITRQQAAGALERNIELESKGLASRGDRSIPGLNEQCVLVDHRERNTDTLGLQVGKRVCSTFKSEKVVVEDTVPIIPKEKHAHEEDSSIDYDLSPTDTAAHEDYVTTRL

[11] = cytotoxicity toward NIH3T3 fibroblasts, dose response, counter-screen, cell-based, ATP luminescence, mouse fibroblasts (AID 2010); type: functional;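 also: cells exposed to compound for about 90 hours before reading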
[12] = inhibitors of intracellular T. cruzi replication, confirmation, NIH3T3 host cells, beta-gal luminescence (AID 2044); type: functional, cell-based;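 also: intracellular parasites grown in NIH/3T3 mouse fibroblasts as host cells; luminescent beta-galactosidase reporter signal from transgenic T. cruzi replicating inside host cells; inhibitors lower the luminescence signal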
[13] = biological target: T5, Rac GTPase-activating protein 1 (Homo sapiens, UniProt Q9H0H5); assay: MgcRacGAP GTPase-activating activity inhibitors, confirmation, biochemical, ADP Hunter fluorescence, primary and confirmatory (AID 624330); type: functional
T5 sequence (Q9H0H5 whole entry): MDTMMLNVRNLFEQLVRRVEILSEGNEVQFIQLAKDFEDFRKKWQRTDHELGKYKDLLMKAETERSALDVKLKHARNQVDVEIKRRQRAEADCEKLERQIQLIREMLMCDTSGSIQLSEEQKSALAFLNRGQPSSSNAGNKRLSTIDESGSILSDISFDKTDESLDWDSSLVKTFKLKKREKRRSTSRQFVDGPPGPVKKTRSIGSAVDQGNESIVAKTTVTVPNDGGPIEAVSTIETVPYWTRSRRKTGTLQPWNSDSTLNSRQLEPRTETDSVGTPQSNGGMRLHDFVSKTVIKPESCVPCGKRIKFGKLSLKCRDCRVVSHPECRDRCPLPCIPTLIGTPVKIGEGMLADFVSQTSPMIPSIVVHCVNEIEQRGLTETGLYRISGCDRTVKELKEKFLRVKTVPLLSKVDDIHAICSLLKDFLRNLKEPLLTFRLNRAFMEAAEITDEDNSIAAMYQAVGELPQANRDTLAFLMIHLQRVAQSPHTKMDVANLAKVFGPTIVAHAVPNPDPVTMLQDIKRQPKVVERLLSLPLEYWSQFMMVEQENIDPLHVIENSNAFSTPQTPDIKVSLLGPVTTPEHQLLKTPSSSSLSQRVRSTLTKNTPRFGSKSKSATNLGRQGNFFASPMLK

[14] = system: Streptococcus sp. 'group A'; assay: growth inhibition of control SK(-) GAS strain, dose response, counter-screen for streptokinase expression inhibitor project, luminescence, kanamycin, BacTiterGlo, confirmation (AID 1900); type: functional, organism-based
[15] = cytotoxicity toward DRD oncogenic fibroblasts, dose response, cell-based, non-viral oncogenic, luminescence (AID 1934); type: functional; details: Homo sapiens
[16] = biological target: T6, Streptokinase A (Streptococcus pyogenes serotype M1, UniProt P10520); assay: S. pyogenes streptokinase expression inhibitors, potency, dose response, plasminogen activation absorbance, OD405 (AID 1914); type: functional, Streptococcus pyogenes M1 GAS;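 also: secreted streptokinase activity via plasminogen activation per viability signal from cell pellet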
T6 sequence (P10520 whole entry): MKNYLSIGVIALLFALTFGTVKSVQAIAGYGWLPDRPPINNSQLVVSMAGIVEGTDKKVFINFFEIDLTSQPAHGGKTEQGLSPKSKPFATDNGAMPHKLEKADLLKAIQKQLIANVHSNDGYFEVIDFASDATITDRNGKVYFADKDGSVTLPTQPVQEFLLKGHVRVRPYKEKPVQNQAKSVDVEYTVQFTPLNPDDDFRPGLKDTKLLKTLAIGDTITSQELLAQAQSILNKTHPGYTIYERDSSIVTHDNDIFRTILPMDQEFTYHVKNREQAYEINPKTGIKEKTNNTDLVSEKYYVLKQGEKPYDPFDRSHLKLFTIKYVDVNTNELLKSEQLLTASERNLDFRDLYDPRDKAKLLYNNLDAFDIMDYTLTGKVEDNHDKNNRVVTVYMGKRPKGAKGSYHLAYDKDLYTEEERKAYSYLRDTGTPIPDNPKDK

[17] = system: BJ; assay: cytotoxicity toward BJ-TERT fibroblasts, dose response, cell-based, RAS-independent, luminescence (AID 1933); type: functional; details: Homo sapiens
[18] = system: Streptococcus; assay: Group A Streptococcus viability loss, dose response, counter-screen for streptokinase expression inhibitor project, luminescence, BacTiterGlo (AID 1915); type: functional, organism-based;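 also: potency for reduction of bacterial viability or growth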
[19] = system: BJ; assay: cells; type: functional, cell-based; details: Homo sapiens
[20] = system: BJ; assay: cytotoxicity toward BJ-TERT-LT-ST fibroblasts, dose response, cell-based, RAS-independent, luminescence (AID 1935); type: functional; details: Homo sapiens;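 also: BJ fibroblasts immortalized with TERT plus LT and ST oncogenes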

Sequence of FAD-linked sulfhydryl oxidase ALR (P55789 whole entry): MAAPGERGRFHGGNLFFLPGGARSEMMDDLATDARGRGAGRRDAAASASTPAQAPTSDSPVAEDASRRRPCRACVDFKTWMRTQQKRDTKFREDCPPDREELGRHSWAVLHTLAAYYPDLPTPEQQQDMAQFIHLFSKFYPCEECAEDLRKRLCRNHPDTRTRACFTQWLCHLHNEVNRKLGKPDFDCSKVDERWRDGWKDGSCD

Compound: O=C(C1CCCC1)N1CCN=C1SCc1cccc([N+](=O)[O-])c1
- AC50 [1]: 0.032 µM (active)

Compound: c1ccc2[nH]c(SCc3cn4cccnc4n3)nc2c1
- AC50 [1]: 0.194 µM (active)

Compound: COc1ccc(CN(C)C[C@H]2Oc3ccc(NC(=O)C4CCCCC4)cc3CC(=O)N([C@@H](C)CO)C[C@@H]2C)cc1
- AC50 [2]: 1.2 µM (active)

Compound: C[C@H](CO)N1C[C@H](C)[C@H](CN(C)Cc2ccc(C(F)(F)F)cc2)Oc2c(NC(=O)Nc3ccc(C(F)(F)F)cc3)cccc2C1=O
- AC50 [2]: 4.77 µM (active)

Compound: O=C(NN=Cc1sc(=O)[n-]c1-[n+]1ccc(-c2ccncc2)cc1)c1ccccc1O
- EC50 [3]: 11.9 µM (active)
- EC50 [4]: 10.7 µM (active)
- IC50 [5]: 33.3 µM (inactive)
- IC50 [6]: 42.7 µM (inactive)

Compound: Nc1cc(O)nc(SCC(=O)Nc2cccc([N+](=O)[O-])c2)n1
- AC50 [7]: 27.7 µM (active)

Compound: C[C@H]1CN([C@@H](C)CO)C(=O)c2cc(NC(=O)Cc3cn(C)c4ccccc34)ccc2O[C@H]1CN(C)S(=O)(=O)c1ccc(Cl)cc1
- AC50 [2]: 2.81 µM (active)

Compound: O=C(NC(=S)Nc1ccc(C(=O)N2CCOCC2)cc1)c1ccc([N+](=O)[O-])cc1
- IC50 [5]: > 66 µM (inactive)
- AC50 [8]: 0.891 µM (inconclusive)
- AC50 [9]: 1.41 µM (inconclusive)
- IC50 [6]: > 66 µM (inactive)

Compound: CCCCOc1ccc(CSCCN=C(N)N)cc1
- EC50 [10]: 3.35 µM (active)

Compound: C/C(=N\NC(=O)CN1CCN(S(=O)(=O)c2ccc(C)cc2)CC1)c1ccc(O)cc1
- AC50 [1]: 2.92 µM (active)

Compound: CC(C)CCN1CCN(Cc2ccsc2)CC1CCO (stereo unspecified)
- EC50 [10]: 4.22 µM (active)

Compound: Cc1cc(C(=O)NNc2ccccc2F)no1
- AC50 [1]: 5.7 µM (active)
- EC50 [11]: 5.14 µM (active)
- EC50 [12]: 2.26 µM (active)

Compound: C[C@H]1CN([C@@H](C)CO)C(=O)Cc2cc(NS(=O)(=O)c3ccc(F)cc3)ccc2O[C@H]1CN(C)Cc1ccc(C(=O)Nc2ccccc2N)cc1
- AC50 [2]: 2.64 µM (active)

Compound: CC1CN(C2CCCCC2)c2nc3c(c(=O)[nH]c(=O)n3C)n2C1 (stereo unspecified)
- AC50 [1]: 1.81 µM (active)

Compound: COc1ccc(S(=O)(=O)Nc2cccc3c2O[C@@H](CN(C)Cc2ccc(C(=O)Nc4ccccc4N)cc2)[C@@H](C)CN([C@H](C)CO)C3=O)cc1
- AC50 [2]: 4.14 µM (active)

Compound: Cc1nn(C(=O)c2cccc([N+](=O)[O-])c2)c(C)c1Sc1ccccc1
- EC50 [10]: 2.66 µM (active)

Compound: Nc1ccc(N2CCN(c3ccccc3)CC2)c(F)c1
- AC50 [1]: 13.2 µM (active)
- IC50 [13]: 46.6 µM (active)

Compound: Cn1cccc1/C=N/n1c(S)nnc1-c1ccc(Cl)cc1Cl
- AC50 [1]: 1.07 µM (active)

Compound: C[C@@H]1CN([C@@H](C)CO)C(=O)Cc2cc(NC(=O)Nc3cccc4ccccc34)ccc2O[C@@H]1CN(C)Cc1ccc(-c2ccccc2)cc1
- AC50 [2]: 3.22 µM (active)

Compound: CCC1(C(=O)c2ccccc2)C(c2ccc([N+](=O)[O-])cc2)C1(C(=O)OC)C(=O)OC (stereo unspecified)
- EC50 [10]: 4.22 µM (active)

Compound: C[C@@H]1CN([C@@H](C)CO)C(=O)Cc2cc(NC(=O)Nc3ccc4c(c3)OCO4)ccc2O[C@@H]1CN(C)Cc1ccc(Oc2ccccc2)cc1
- AC50 [2]: 2.77 µM (active)

Compound: CSCC[C@H](NC(=O)N1CCn2c1nc1ccccc12)C(=O)N1CCCCC1
- AC50 [1]: 4.31 µM (active)

Compound: C[C@H](CO)N1C[C@H](C)[C@@H](CN(C)Cc2ccc(C(=O)Nc3ccccc3N)cc2)Oc2c(NC(=O)C3CC3)cccc2C1=O
- AC50 [2]: 1.13 µM (active)

Compound: COC(=O)c1c(NC(=O)COc2ccc(Cl)cc2)sc2c1CC(C)(C)NC2(C)C
- EC50 [11]: 10.4 µM (active)
- EC50 [12]: 1.54 µM (active)
- EC50 [14]: 11.6 µM (active)
- EC50 [15]: 5.85 µM (active)
- EC50 [16]: 23.7 µM (active)
- EC50 [17]: 4.44 µM (active)
- EC50 [18]: > 150 µM (not active)
- EC50 [19]: 11.7 µM (active)
- EC50 [20]: 5.75 µM (inconclusive)
